Laboratory results reported in patent US11136296B2, “Substituted N-arylethyl-2-arylquinoline-4-carboxamides and use thereof” (Bayer Aktiengesellschaft, priority 2017, dated 2021).

Target: FP receptor (Homo sapiens (Human), UniProt P43088)
Test: In vitro test of inhibition of human FP receptor activity (PGF2α-induced calcium flux in FP-expressing CHEM1 cells)
Format: cell-based
Settings: PGF2α-induced (2 nM) calcium flux in FP-expressing CHEM1 cells; some as mean values from multiple determinations
From the text: Table 1 below lists the IC50 values from this assay for individual working examples of the invention (some as mean values from multiple independent individual determinations): […]

FP receptor, sequence (P43088 whole entry): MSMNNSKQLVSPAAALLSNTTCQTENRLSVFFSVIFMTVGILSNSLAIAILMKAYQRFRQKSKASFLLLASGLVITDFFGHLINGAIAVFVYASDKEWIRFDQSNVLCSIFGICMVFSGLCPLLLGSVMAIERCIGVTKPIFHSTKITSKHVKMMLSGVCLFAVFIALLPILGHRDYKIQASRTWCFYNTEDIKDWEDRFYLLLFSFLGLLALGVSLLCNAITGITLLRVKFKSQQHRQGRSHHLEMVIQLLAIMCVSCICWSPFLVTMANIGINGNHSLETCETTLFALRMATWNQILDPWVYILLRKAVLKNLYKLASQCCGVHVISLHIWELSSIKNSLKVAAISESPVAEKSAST

Compound	IC50 [nM]
Cc1c(-c2ccccc2)nc2ccc(Br)cc2c1C(=O)NCC(CCC(=O)O)c1c(F)c(F)cc(F)c1F (single isomer, unassigned; (+)) [Example 230, (+)-5-{[(6-Bromo-3-methyl-2-phenylquinolin-4-yl)carbonyl]amino}-4-(2,3,5,6-tetrafluorophenyl)pentanoic Acid]	49
Cc1c(-c2ccccc2)nc2ccc(Br)cc2c1C(=O)NCC(CCC(=O)O)c1c(Cl)ccc(Cl)c1Cl (single isomer, unassigned; (+)) [Example 235, (+)-5-{[(6-Bromo-3-methyl-2-phenylquinolin-4-yl)carbonyl]amino}-4-(2,3,6-trichlorophenyl)pentanoic Acid]	32
Cc1c(-c2ccccc2)nc2ccc(Br)cc2c1C(=O)NCC(C)(CCCC(=O)O)c1ccccc1Cl (single isomer, unassigned; (+)) [Example 242, (+)-6-{[(6-Bromo-3-methyl-2-phenylquinolin-4-yl)carbonyl]amino}-5-(2-chlorophenyl)-5-methylhexanoic Acid]	16
Cc1c(-c2ccccc2)nc2ccc(Br)cc2c1C(=O)NCC(C)(CCCC(=O)O)c1ccccc1 (single isomer, unassigned; (+)) [Example 245, (+)-6-{[(6-Bromo-3-methyl-2-phenylquinolin-4-yl)carbonyl]amino}-5-methyl-5-phenylhexanoic Acid]	63
Cc1c(-c2ccccc2)nc2ccc(Br)cc2c1C(=O)NCC(C(=O)O)c1ccccc1 (single isomer, unassigned; (-)) [Example 2, (−)-3-{[(6-Bromo-3-methyl-2-phenylquinolin-4-yl)carbonyl]amino}-2-phenylpropanoic Acid]	160
COc1ccccc1C(CNC(=O)c1c(C)c(-c2ccccc2)nc2ccc(Br)cc12)C(=O)O (single isomer, unassigned; (-)) [Example 8, (−)-3-{[(6-Bromo-3-methyl-2-phenylquinolin-4-yl)carbonyl]amino}-2-(2-methoxyphenyl)propanoic Acid]	130
Cc1c(-c2ccccc2)nc2ccc(Br)cc2c1C(=O)NCC(C)(C(=O)O)c1ccccc1 (single isomer, unassigned; (-)) [Example 14, (−)-3-{[(6-Bromo-3-methyl-2-phenylquinolin-4-yl)carbonyl]amino}-2-methyl-2-phenylpropanoic Acid]	53
CCC(CNC(=O)c1c(C)c(-c2ccccc2)nc2ccc(Br)cc12)(C(=O)O)c1ccccc1 (single isomer, unassigned; (-)) [Example 17, (−)-2-({[(6-Bromo-3-methyl-2-phenylquinolin-4-yl)carbonyl]amino}methyl)-2-phenylbutanoic Acid]	260
Cc1c(-c2ccccc2)nc2ccc(Br)cc2c1C(=O)NCC(O)(C(=O)O)c1ccccc1 (single isomer, unassigned; (-)) [Example 21, (−)-3-{[(6-Bromo-3-methyl-2-phenylquinolin-4-yl)carbonyl]amino}-2-hydroxy-2-phenylpropanoic Acid]	170
Cc1c(-c2ccccc2)nc2ccc(Br)cc2c1C(=O)NCC(C)(C(=O)O)c1ccccc1F (single isomer, unassigned; (-)) [Example 31, (−)-3-{[(6-Bromo-3-methyl-2-phenylquinolin-4-yl)carbonyl]amino}-2-(2-fluorophenyl)-2-methylpropanoic Acid]	68
Cc1c(-c2ccccc2)nc2ccc(Br)cc2c1C(=O)NCC(C)(C(=O)O)c1c(F)cccc1F (single isomer, unassigned; (-)) [Example 34, (−)-3-{[(6-Bromo-3-methyl-2-phenylquinolin-4-yl)carbonyl]amino}-2-(2,6-difluorophenyl)-2-methylpropanoic Acid]	130
Cc1c(-c2ccccc2)nc2ccc(Br)cc2c1C(=O)NCC(C)(C(=O)O)c1ccccc1Cl (single isomer, unassigned; (-)) [Example 36, (−)-3-{[(6-Bromo-3-methyl-2-phenylquinolin-4-yl)carbonyl]amino}-2-(2-chlorophenyl)-2-methylpropanoic Acid]	810
Cc1c(-c2ccccc2)nc2ccc(Br)cc2c1C(=O)NCC(F)(C(=O)O)c1ccccc1 (single isomer, unassigned; (-)) [Example 39, (−)-3-{[(6-Bromo-3-methyl-2-phenylquinolin-4-yl)carbonyl]amino}-2-fluoro-2-phenylpropanoic Acid]	140
Cc1c(-c2ccccc2)nc2ccc(Br)cc2c1C(=O)NCC(C)(C(=O)O)c1cccc(C(F)(F)F)c1 (single isomer, unassigned; (-)) [Example 42, (−)-3-{[(6-Bromo-3-methyl-2-phenylquinolin-4-yl)carbonyl]amino}-2-methyl-2-[3-(trifluoromethyl)phenyl]propanoic Acid]	120
COc1cccc(C(CNC(=O)c2c(C)c(-c3ccccc3)nc3ccc(Br)cc23)C(=O)O)c1 (single isomer, unassigned; (-)) [Example 45, (−)-3-{[(6-Bromo-3-methyl-2-phenylquinolin-4-yl)carbonyl]amino}-2-(3-methoxyphenyl)propanoic Acid]	600
Cc1c(-c2ccccc2)nc2ccc(Br)cc2c1C(=O)NCC(C(=O)O)c1cccc(Cl)c1 (single isomer, unassigned; (-)) [Example 48, (−)-3-{[(6-Bromo-3-methyl-2-phenylquinolin-4-yl)carbonyl]amino}-2-(3-chlorophenyl)propanoic Acid]	33
Cc1cccc(C(CNC(=O)c2c(C)c(-c3ccccc3)nc3ccc(Br)cc23)C(=O)O)c1 (single isomer, unassigned; (-)) [Example 51, (−)-3-{[(6-Bromo-3-methyl-2-phenylquinolin-4-yl)carbonyl]amino}-2-(3-methylphenyl)propanoic Acid]	42
COc1ccccc1C(O)(CNC(=O)c1c(C)c(-c2ccccc2)nc2ccc(Br)cc12)C(=O)O (single isomer, unassigned; (-)) [Example 54, (−)-3-{[(6-Bromo-3-methyl-2-phenylquinolin-4-yl)carbonyl]amino}-2-hydroxy-2-(2-methoxyphenyl)propanoic Acid]	500
COc1cccc(F)c1C(CNC(=O)c1c(C)c(-c2ccccc2)nc2ccc(Br)cc12)C(=O)O (single isomer, unassigned; (-)) [Example 57, (−)-3-{[(6-Bromo-3-methyl-2-phenylquinolin-4-yl)carbonyl]amino}-2-(2-fluoro-6-methoxyphenyl)propanoic Acid]	210
COc1ccccc1C(C)(CNC(=O)c1c(C)c(-c2ccccc2)nc2ccc(Br)cc12)C(=O)O (single isomer, unassigned; (-)) [Example 59, (−)-3-{[(6-Bromo-3-methyl-2-phenylquinolin-4-yl)carbonyl]amino}-2-(2-methoxyphenyl)-2-methylpropanoic Acid]	390
Cc1c(-c2ccccc2)nc2ccc(Br)cc2c1C(=O)NCC(C)(C(=O)O)c1c(F)cccc1Cl (single isomer, unassigned; (-)) [Example 62, (−)-3-{[(6-Bromo-3-methyl-2-phenylquinolin-4-yl)carbonyl]amino}-2-(2-chloro-6-fluorophenyl)-2-methylpropanoic Acid]	43
